Reference: patent US10597388B2, “Pyridazinone herbicides” (FMC CORPORATION, priority 2014, dated 2020)

Experiments:
Experiment in all cases: Test C greenhouse herbicide test, pre- and postemergence
Format in all cases: in vivo
[1] = tested on: nutsedge, yellow (yellow nutsedge, Cyperus esculentus)
Outline: (§1)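 Pre- and postemergence greenhouse screen; values are visual control ratings, 0 meaning no effect and 100 complete kill, assigned relative to untreated plants after 13 to 15 d.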

[2] = tested on: foxtail, giant (giant foxtail, Setaria faberii)
Outline: as §1

[3] = tested on: blackgrass (Alopecurus myosuroides)
Outline: as §1

[4] = tested on: johnsongrass (Sorghum halepense)
Outline: as §1

[5] = tested on: lambsquarters (Chenopodium album)
Outline: as §1

[6] = tested on: galium (catchweed bedstraw, Galium aparine)
Outline: as §1

[7] = tested on: morningglory (Ipomoea coccinea)
Outline: as §1

[8] = tested on: pigweed (Amaranthus retroflexus)
Outline: as §1

corn (Zea mays) = tested on: corn (Zea mays)
Outline: as §1

soybean (Glycine max) = tested on: soybean (Glycine max)
Outline: as §1

[9] = tested on: waterhemp (common waterhemp, Amaranthus rudis)
Outline: as §1

[10] = tested on: ryegrass, Italian (Italian ryegrass, Lolium multiflorum)
Outline: as §1

[11] = tested on: wheat (winter wheat, Triticum aestivum)
Outline: as §1

[12] = tested on: crabgrass, large (large crabgrass, Digitaria sanguinalis)
Outline: as §1

[13] = tested on: oilseed rape (Brassica napus)
Outline: as §1

[14] = tested on: velvetleaf (Abutilon theophrasti)
Outline: as §1

[15] = Postemergence, 31 g ai/ha, scale 0 to 100 (0 no effect, 100 complete control)
[16] = Postemergence, 125 g ai/ha, scale 0 to 100, 0 is no effect, 100 is complete control
[17] = Postemergence, 250 g ai/ha, scale 0 to 100, 0 no effect, 100 complete control, 13 to 15 d
[18] = Preemergence, 31 g ai/ha, scale 0 to 100, 0 is no effect, 100 is complete control
[19] = Preemergence, 62 g ai/ha, scale 0 to 100, 0 is no effect, 100 is complete control
[20] = Preemergence, 125 g ai/ha, scale 0 to 100, 0 is no effect, 100 is complete control
[21] = Preemergence, 250 g ai/ha, scale 0 to 100 (0 no effect, 100 complete control)
[22] = postemergence, 62 g ai/ha, scale 0 to 100, 0 no effect, 100 complete control
[23] = Postemergence, 31 g ai/ha, 0 to 100 scale (0 no effect, 100 complete control)

## Cc1nn(C)c(=O)c(-c2c(C)sc3ccc(Cl)cc23)c1O [Compound 104]
[1]; [15]
  Plant response rating, Nutsedge, Yellow: 55
[1]; [16]
  Plant response rating, Nutsedge, Yellow: 60
[1]; [17]
  Plant response rating, Nutsedge, Yellow: 75
[1]; [18]
  Plant response rating, Nutsedge, Yellow: 30
[1]; [19]
  Plant response rating, Nutsedge, Yellow: 45
[1]; [20]
  Plant response rating, Nutsedge, Yellow: 75
[1]; [21]
  Nutsedge, Yellow plant response rating: 85
[2]; [15]
  Plant response rating, Foxtail, Giant: 50
[2]; [16]
  Plant response rating, Foxtail, Giant: 75
[2]; [17]
  Plant response rating, Foxtail, Giant: 85
[2]; [18]
  Plant response rating, Foxtail, Giant: 75
[2]; [19]
  Plant response rating, Foxtail, Giant: 85
[2]; [20]
  Plant response rating, Foxtail, Giant: 75
[2]; [21]
  Foxtail, Giant plant response rating: 100
[3]; [15]
  Plant response rating, Blackgrass: 15
[3]; [16]
  Plant response rating, Blackgrass: 50
[3]; [17]
  Plant response rating, Blackgrass: 55
[3]; [18]
  Plant response rating, Blackgrass: 5
[3]; [19]
  Plant response rating, Blackgrass: 15
[3]; [20]
  Plant response rating, Blackgrass: 30
[3]; [21]
  Blackgrass plant response rating: 60
[3]; [22]
  Blackgrass plant response rating: 35
[4]; [15]
  Plant response rating, Johnsongrass: 10
[4]; [16]
  Plant response rating, Johnsongrass: 5
[4]; [17]
  Plant response rating, Johnsongrass: 5
[4]; [18]
  Plant response rating, Johnsongrass: 10
[4]; [19]
  Plant response rating, Johnsongrass: 20
[4]; [20]
  Plant response rating, Johnsongrass: 20
[4]; [21]
  Johnsongrass plant response rating: 30
[5]; [15]
  Plant response rating, Lambsquarters: 90
[5]; [16]
  Plant response rating, Lambsquarters: 100
[5]; [17]
  Plant response rating, Lambsquarters: 100
[5]; [18]
  Plant response rating, Lambsquarters: 85
[5]; [19]
  Plant response rating, Lambsquarters: 85
[5]; [20]
  Plant response rating, Lambsquarters: 95
[5]; [21]
  Lambsquarters plant response rating: 95
[6]; [15]
  Plant response rating, Galium: 95
[6]; [16]
  Plant response rating, Galium: 98
[6]; [17]
  Plant response rating, Galium: 98
[6]; [18]
  Plant response rating, Galium: 90
[6]; [19]
  Plant response rating, Galium: 85
[6]; [20]
  Plant response rating, Galium: 90
[6]; [21]
  Galium plant response rating: 98
[7]; [15]
  Plant response rating, Morningglory: 98
[7]; [16]
  Plant response rating, Morningglory: 100
[7]; [17]
  Plant response rating, Morningglory: 100
[7]; [18]
  Plant response rating, Morningglory: 80
[7]; [19]
  Plant response rating, Morningglory: 95
[7]; [20]
  Plant response rating, Morningglory: 100
[7]; [21]
  Morningglory plant response rating: 98
[8]; [15]
  Plant response rating, Pigweed: 95
[8]; [16]
  Plant response rating, Pigweed: 100
[8]; [17]
  Plant response rating, Pigweed: 100
[8]; [18]
  Plant response rating, Pigweed: 100
[8]; [19]
  Plant response rating, Pigweed: 100
[8]; [20]
  Plant response rating, Pigweed: 100
[8]; [21]
  Pigweed plant response rating: 100
Corn (Zea mays); [15]
  Plant response rating, Corn: 5
Corn (Zea mays); [16]
  Plant response rating, Corn: 50
Corn (Zea mays); [17]
  Plant response rating, Corn: 30
Corn (Zea mays); [18]
  Plant response rating, Corn: 5
Corn (Zea mays); [19]
  Plant response rating, Corn: 0
Corn (Zea mays); [20]
  Plant response rating, Corn: 15
Corn (Zea mays); [21]
  Corn plant response rating: 10
Corn (Zea mays); [22]
  Corn plant response rating: 80
Soybean (Glycine max); [15]
  Plant response rating, Soybean: 0
Soybean (Glycine max); [16]
  Plant response rating, Soybean: 10
Soybean (Glycine max); [17]
  Plant response rating, Soybean: 10
Soybean (Glycine max); [18]
  Plant response rating, Soybean: 0
Soybean (Glycine max); [19]
  Plant response rating, Soybean: 0
Soybean (Glycine max); [20]
  Plant response rating, Soybean: 0
Soybean (Glycine max); [21]
  Soybean plant response rating: 0
[9]; [15]
  Plant response rating, Waterhemp: 70
[9]; [16]
  Plant response rating, Waterhemp: 100
[9]; [17]
  Plant response rating, Waterhemp: 95
[9]; [18]
  Plant response rating, Waterhemp: 75
[9]; [19]
  Plant response rating, Waterhemp: 90
[9]; [20]
  Plant response rating, Waterhemp: 100
[9]; [21]
  Waterhemp plant response rating: 100
[10]; [15]
  Plant response rating, Ryegrass, Italian: 90
[10]; [16]
  Plant response rating, Ryegrass, Italian: 90
[10]; [17]
  Plant response rating, Ryegrass, Italian: 90
[10]; [18]
  Plant response rating, Ryegrass, Italian: 55
[10]; [19]
  Plant response rating, Ryegrass, Italian: 85
[10]; [20]
  Plant response rating, Ryegrass, Italian: 90
[10]; [21]
  Ryegrass, Italian plant response rating: 95
[11]; [15]
  Plant response rating, Wheat: 0
[11]; [16]
  Plant response rating, Wheat: 5
[11]; [17]
  Plant response rating, Wheat: 10
[11]; [18]
  Plant response rating, Wheat: 5
[11]; [19]
  Plant response rating, Wheat: 5
[11]; [20]
  Plant response rating, Wheat: 5
[11]; [21]
  Wheat plant response rating: 0
[12]; [15]
  Plant response rating, Crabgrass, Large: 20
[12]; [16]
  Plant response rating, Crabgrass, Large: 35
[12]; [17]
  Plant response rating, Crabgrass, Large: 55
[12]; [18]
  Plant response rating, Crabgrass, Large: 40
[12]; [19]
  Plant response rating, Crabgrass, Large: 55
[12]; [20]
  Plant response rating, Crabgrass, Large: 55
[12]; [21]
  Crabgrass, Large plant response rating: 60
[12]; [22]
  Crabgrass, Large plant response rating: 30
[13]; [15]
  Plant response rating, Oilseed Rape: 85
[13]; [16]
  Plant response rating, Oilseed Rape: 95
[13]; [17]
  Plant response rating, Oilseed Rape: 98
[13]; [18]
  Plant response rating, Oilseed Rape: 5
[13]; [19]
  Plant response rating, Oilseed Rape: 30
[13]; [20]
  Plant response rating, Oilseed Rape: 85
[13]; [21]
  Oilseed Rape plant response rating: 95
[14]; [15]
  Plant response rating, Velvetleaf: 50
[14]; [16]
  Plant response rating, Velvetleaf: 98
[14]; [17]
  Plant response rating, Velvetleaf: 90
[14]; [18]
  Plant response rating, Velvetleaf: 40
[14]; [19]
  Plant response rating, Velvetleaf: 80
[14]; [20]
  Plant response rating, Velvetleaf: 90
[14]; [21]
  Velvetleaf plant response rating: 90

## COc1nn(C)c(=O)c(-c2c(C)sc3ccc(Cl)cc23)c1O [Compound 100]
[1]; [16]
  Plant response rating, Nutsedge, Yellow: 20
[1]; [17]
  Plant response rating, Nutsedge, Yellow: 50
[1]; [22]
  Nutsedge, Yellow plant response rating: 25
[2]; [16]
  Plant response rating, Foxtail, Giant: 75
[2]; [17]
  Plant response rating, Foxtail, Giant: 90
[2]; [22]
  Foxtail, Giant plant response rating: 45
[3]; [23]
  Blackgrass plant response rating: 5
[3]; [16]
  Plant response rating, Blackgrass: 5
[3]; [17]
  Plant response rating, Blackgrass: 25
[3]; [22]
  Blackgrass plant response rating: 5
[4]; [16]
  Plant response rating, Johnsongrass: 5
[4]; [17]
  Plant response rating, Johnsongrass: 10
[4]; [22]
  Johnsongrass plant response rating: 0
[5]; [16]
  Plant response rating, Lambsquarters: 98
[5]; [17]
  Plant response rating, Lambsquarters: 98
[5]; [22]
  Lambsquarters plant response rating: 90
[6]; [16]
  Plant response rating, Galium: 95
[6]; [17]
  Plant response rating, Galium: 95
[6]; [22]
  Galium plant response rating: 95
[7]; [16]
  Plant response rating, Morningglory: 100
[7]; [17]
  Plant response rating, Morningglory: 100
[7]; [22]
  Morningglory plant response rating: 100
[8]; [16]
  Plant response rating, Pigweed: 100
[8]; [17]
  Plant response rating, Pigweed: 100
[8]; [22]
  Pigweed plant response rating: 85
Corn (Zea mays); [23]
  Corn plant response rating: 5
Corn (Zea mays); [16]
  Plant response rating, Corn: 5
Corn (Zea mays); [17]
  Plant response rating, Corn: 10
Corn (Zea mays); [22]
  Corn plant response rating: 10
Soybean (Glycine max); [16]
  Plant response rating, Soybean: 5
Soybean (Glycine max); [17]
  Plant response rating, Soybean: 5
Soybean (Glycine max); [22]
  Soybean plant response rating: 5
[9]; [16]
  Plant response rating, Waterhemp: 95
[9]; [17]
  Plant response rating, Waterhemp: 98
[9]; [22]
  Waterhemp plant response rating: 90
[10]; [16]
  Plant response rating, Ryegrass, Italian: 90
[10]; [17]
  Plant response rating, Ryegrass, Italian: 95
[10]; [22]
  Ryegrass, Italian plant response rating: 90
[11]; [16]
  Plant response rating, Wheat: 0
[11]; [17]
  Plant response rating, Wheat: 5
[11]; [22]
  Wheat plant response rating: 0
[12]; [16]
  Plant response rating, Crabgrass, Large: 25
[12]; [17]
  Plant response rating, Crabgrass, Large: 15
[12]; [22]
  Crabgrass, Large plant response rating: 15
[13]; [16]
  Plant response rating, Oilseed Rape: 10
[13]; [17]
  Plant response rating, Oilseed Rape: 90
[13]; [22]
  Oilseed Rape plant response rating: 60
[14]; [16]
  Plant response rating, Velvetleaf: 40
[14]; [17]
  Plant response rating, Velvetleaf: 65
[14]; [22]
  Velvetleaf plant response rating: 50
